Source: patent US7348025B2, “Small particle liposome aerosols for delivery of anticancer drugs” (priority 1999, dated 2008)
Like-named read-outs stand apart in the source and are kept apart here.

Columns and labels:
[1] = Tissue distribution of CPT after inhalation of CPT liposome aerosol; assay type: in vivo, Mouse; details: Mouse, inhaled in liposome aerosol (30 min), 16.2 μg/kg (486 ng/mouse)
Method: The final suspension was clear. If precipitation occurred, it was reheated to 50-60° C. The preparation was frozen in liquid nitrogen and lyophilized overnight. For use the material was dissolved in sterile water to the appropriate drug concentration, not exceeding 1.0 mg/ml for either drug. The efficiency of incorporation of drug in the liposomes was examined qualitatively by microscopic examination under polarized light. Unincorporated drug was seen as bi-refringent crystals. The efficiency of incorporation was examined by centrifugation of aqueous suspensions of liposomes on Percoll™ gradients. One-tenth ml of suspension was layered over 2 ml of gradient and centrifuged at 2000 rpm for 25-30 minutes. Liposomes layer at the water-Percoll interface, while unincorporated drug was deposited at the bottom of the tube. Many other lipids may be substituted for DLPC in the formulation and use of liposomes for delivery of drugs by aerosol (26).
The mobile phase was 30% acetonitrile and 70% of 0.1% glacial acetic acid. CPT was detected using the Waters 470 scanning fluorescence detector set to an excitation wavelength of 370 nm and an emission wavelength of 440 nm. […] The data were analyzed with the Waters Millenium software.
The deposited dose was calculated to be 486 ng per mouse. The mean concentrations in lungs and liver were similar with smaller concentrations in the other sites examined. […] Drug was cleared promptly from the lungs so that 15 minutes after stopping nebulization only negligible amounts of drug were present in the lungs. Liver, kidney and spleen had substantial amounts of drug initially which gradually diminished through the one hour of study. […] These studies indicate substantial immediate deposition of drug in the lungs with rapid clearance to the viscera. The amount of drug contributed by absorption from swallowed drug is uncertain.

[2] = tested on: human colon carcinoma xenografts (Squires); test: Growth of human colon carcinoma xenografts in nude mice under liposome aerosol; assay type: in vivo
[3] = cited from earlier work
[4] = Phase I clinical trial: 9NC in bronchoalveolar lavage fluid or bronchial aspirate; assay type: in vivo, human
Method: Bronchoscopy was performed by a pulmonologist to obtain either bronchoalveolar lavage (BAL) fluid or bronchial aspirate for quantitation of 9NC. A BAL of the right middle lobe was performed once on volunteering patients at various times after the completion of treatment to study the amount of 9NC retained over time. Concentration of total 9NC in the BAL fluid was corrected for dilution by determining the ration of BUN in the lavage and in a plasma sample taken at the same time (13).

[5] = human, in vivo, po; cited from earlier work
[6] = cited from earlier work; remark: listed apart in the source
[7] = cited from earlier work; for T1/2: Human; for Blood or plasma concentration / Time of maximum concentration: in vivo, po
[8] = Phase I clinical trial: 9NC plasma pharmacokinetics; assay type: in vivo, human
Method: The purpose of quantitation of 9NC from plasma and bronchoalveolar fluids was to determine systemic absorption from the alveolar-capillary exchange surface. Plasma concentrations of total 9NC and the lactone form were measured. For patients who volunteered for pharmacokinetic studies, blood was obtained at various time pints from the start of the aerosol treatment depending on the cohort. For cohort 1 used in the feasibility study blood was obtained at the end of the first week of treatment. Samples were taken at 0, 0.5, 1, 1.25, 1.5, 2, 3, 5, 7, and 24 hours from the start of the 1-hr aerosol exposure. For all other cohorts, samples were obtained at 0, 2, 5, 8, and 24 hours on days 1 and 5 of weeks 1, 4 and 8 where appropriate. Quantitation was performed either by LC/MS, for cohorts 1 and 2, or by HPLC analysis, for cohorts 3 to 6. 9NC plasma concentrations were calculated from the ratio of 9 NC to CPT as internal standard. Extraction of 9NC and its lactone form was performed using Waters C18 Sep-Pak Light cartridges immediately after separating the plasma by a method similar to that previously described (12). Minimal level of detection of 9NC/ml of plasma was 0.5 ng by LC/MS and 1.0 ng by HPLC.

[9] = cohort 1 (0.26 mg/m^2), plasma, DLPC-9NC aerosol

SMILES: CC[C@@]1(O)C(=O)OCc2c1cc1n(c2=O)Cc2cc3c([N+](=O)[O-])cccc3nc2-1 [9-NC, 9-nitro-camptothecin]
- Blood or plasma concentration [1]: 13.9 ng/mL
- Increase in tumor size, escalated-dose group versus 77 μg/kg group ([2]; 77 then 153 then 307 μg/kg per day versus 77 μg/kg throughout, differences not statistically significant): slightly less increase in tumor size
- Rate of tumor growth versus controls ([2]; day 28, P<0.007, Student t test, 2 tailed): reduced rate of tumor growth
- Emaciation of treated mice ([2]; high dose group (up to 307 μg/kg per day)): suggesting drug toxicity
- T1/2 ([3]; Mouse, single oral dose 4.1 mg/kg (0.124 mg/dose)): (T1/2 = 10 h)
- Blood or plasma concentration ([3]; mouse, in vivo, po, 4.1 mg/kg): 732 ng/mL
- Time of maximum concentration ([3]; mouse, in vivo, po, 4.1 mg/kg): 6 min
- 9NC in plasma taken at the same time as BAL ([4]; Subject 1, cycle 1, day 3, 2.1 hr from start of aerosol): 43.2 ng/mL
- 9NC in BAL fluid ([4]; Subject 1, cycle 1, day 3, 2.1 hr from start of aerosol, cohort 1, 0.26 mg/m^2): 8.2 ng/mL
- 9NC in plasma taken at the same time as BAL ([4]; Subject 3, cycle 4, day 3, 4.8 hr from start of aerosol): 10.8 ng/mL
- 9NC in BAL fluid ([4]; Subject 3, cycle 4, day 3, 4.8 hr from start of aerosol, cohort 1, 0.26 mg/m^2): 4.3 ng/mL
- 9NC in plasma taken at the same time as BAL ([4]; Subject 4, cycle 2, day 4, 3.5 hr from start of aerosol): 34.2 ng/mL
- 9NC in BAL fluid ([4]; Subject 4, cycle 2, day 4, 3.5 hr from start of aerosol, cohort 1, 0.26 mg/m^2): 25.8 ng/mL
- 9NC in plasma taken at the same time as the aspirate ([4]; Subject 6, cycle 1, day 4, 1.2 hr from start of aerosol): 36.2 ng/mL
- 9NC in lung aspirate ([4]; Subject 6, cycle 1, day 4, 1.2 hr from start of aerosol, cohort 1, 0.26 mg/m^2): 60.7 ng/mL
- Another side effect [5]: chemical cystitis with hematuria
- Main toxicity profile [5]: hematologic with anemia and neutropenia and gastrointestinal with nausea, vomiting and anorexia
- T1/2 ([6]; Dog, single oral dose 1.0 mg/kg (10 mg/dose)): (T1/2 = 6.4 h)
- Blood or plasma concentration ([6]; dog, in vivo, po, 1 mg/kg): 19.1 ng/mL
- Time of maximum concentration ([6]; dog, in vivo, po, 1 mg/kg): 0.7 h
- T1/2 ([7]; single oral dose 0.1 mg/kg (7 mg/dose)): (T1/2 = 2.5 h)
- T1/2 ([7]; single oral dose 1.0 mg/kg (70 mg/dose)): (T1/2 = 4.9 h)
- Blood or plasma concentration ([7]; 0.1 mg/kg): 483 ng/mL
- Time of maximum concentration ([7]; 0.1 mg/kg): 3.4 h
- Blood or plasma concentration ([7]; 1 mg/kg): 1247 ng/mL
- Time of maximum concentration ([7]; 1 mg/kg): 5.3 h
- Range of peak plasma concentration of total 9NC ([8]; cohort 1 (0.26 mg/m^2), 5 patients, 1-hour DLPC-9NC aerosol, at 2 hr): 13.6 to 58.0 ng/mL
- Mean (±SD) peak plasma concentration of total 9NC ([8]; cohort 1 (0.26 mg/m^2), 5 patients, 1-hour DLPC-9NC aerosol, at 2 hr from start, end of first week): 37.7 ± 20.2 ng/mL
- T1/2α, mean (±SD) [8, 9]: 1.9 ± 1.4 h
- T1/2β, mean (±SD) [8, 9]: 16.4 ± 10.5 h
- Peak plasma levels in women compared with men ([8]; human, in vivo): higher
- Time for which total 9NC plasma concentrations continued to increase ([8]; human, in vivo): 2 to 3 h
